Results published in US12013390B2, “EBIV nucleic acid composition and application thereof” (Wuhan Institute of Virology, Chinese Academy of Sciences, priority 2022, dated 2024).

Tested on: BHK-21 cells
Assay: Cell viability per well (percentage of cells remaining) observed under a microscope in the drug screening test
Type: cell-based, hamster
Conditions: infected BHK-21 cells with drug, 36 hours
Experimental: (1) A 96-well plate for BHK-21 cells was prepared. The cells were planked at 10^4 cells/well. The plate was cultured in a cell incubator with a temperature of 37° C. and a CO2 concentration of 5%. The drug screening test was conducted when the cells grew to 40-50%. The drug to be tested was dissolved in dimethyl sulfoxide. Then the drug was diluted to 100 μM with DMEM medium containing 2% FBS. After that, the drug was subjected to serial 2-fold dilution to obtain the dilution gradient with the concentration of 100 μM, 50 μM, 25 μM, 12.5 μM, 6.25 μM, 3.125 μM, and 1.5625 μM, respectively (the concentration of DMSO in the diluted drug shall be <0.1%).
(2) The original culture medium was removed from the 96-well plate. The virus was inoculated into the 96-well plate at an MOI of 0.01 and a volume of 100 μL/well. At the same time, the diluted drugs to be tested were respectively added into the same 96-well plate at 100 μL/well and mixed well with the virus solution. The plate was incubated in a cell incubator with a temperature of 37° C. and a CO2 concentration of 5% for 36 hours before detection.
(4) Cell viability per well (and the percentage of cells remaining per well) was observed under a microscope and the half-maximal effect concentration (EC50) of the drug was calculated using GraphPad Prism 9 software and an EC50 graph was plotted.

Compound	Cell viability	also measured
CC(C)=CCC(OC(=O)C=C(C)C)C1=CC(=O)c2c(O)ccc(O)c2C1=O (stereo not drawn) [Beta, beta-dimethyl acryl shikonin]	70%	–
C[C@@]12C(=O)OC(=O)[C@]1(C)[C@H]1CC[C@@H]2O1 [Cantharidin]	50%	–
C[C@H](CCC(=O)O)[C@H]1CC[C@H]2[C@@H]3[C@H](O)C[C@@H]4C[C@H](O)CC[C@]4(C)[C@H]3CC[C@]12C [Chenodeoxycholic acid, reference compound]	70%	–
COc1ccc(-c2cc(=O)c3c(O)cc(O[C@@H]4O[C@H](CO[C@@H]5O[C@@H](C)[C@H](O)[C@@H](O)[C@H]5O)[C@@H](O)[C@H](O)[C@H]4O)cc3o2)cc1O [Diosmin, reference compound]	100%	Cell viability (listed as diosmin): 100%
Oc1cc(O)c2c(c1)O[C@H](c1cc(O)c(O)c(O)c1)[C@H](O)C2 [Epigallocatechol]	0%	–
CC(C)=CCc1c(O)ccc(C(=O)/C=C/c2ccc(O)cc2)c1O [Isobavachalcone]	30%	–
CC(C)=CCc1cc2c(cc1O)oc(=O)c1c3ccc(O)cc3oc21 [Psoralidin]	50%	–
C=C[C@H]1[C@H](O[C@@H]2O[C@H](CO)[C@@H](O)[C@H](O)[C@H]2O)OC=C(C(=O)OC)[C@H]1CC(=O)O [Secoxyloganin]	100%	Cell viability (listed as secoxyloganin): 100%
Clinodiside Aogenin A	100%	Cell viability (listed as clinodiside A): 100%
